Data from patent US20240409585A1, “MACROCYCLIC IMMUNOMODULATORS” (priority 2021, published 2024).
Numbered stars: 1 amine (or outer) side, 2 acyl side, 3 side chain; on linkers, the order of the positions; unused ones are H or OH. Bridge positions count the residues as written; N and C are the ends. Square brackets hold non-standard residues; d marks the D form. Peptide text beside a SMILES is read from it. * marks the point of attachment. ξ: configuration not given here. X46 = COCc1ccc(-c2ccc(C[C@H](N[*:1])C(=O)[*:2])cc2)cc1; Phe(4-COOH) = N[C@@H](Cc1ccc(C(=O)O)cc1)C(=O)O; Phe(4-CH2NH2) = NCc1ccc(C[C@H](N)C(=O)O)cc1; Bip = N[C@@H](Cc1ccc(-c2ccccc2)cc1)C(=O)O; Phe(3-Me) = Cc1cccc(C[C@H](N)C(=O)O)c1; Val(3-OH) = CC(C)(O)[C@H](N)C(=O)O; 4Pal = N[C@@H](Cc1ccncc1)C(=O)O; Cha = N[C@@H](CC1CCCCC1)C(=O)O; Cit = NC(=O)NCCC[C@H](N)C(=O)O; Ile(3ξ) = CCC(C)[C@H](N)C(=O)O; Thr(3ξ) = CC(O)[C@H](N)C(=O)O; ξCha = NC(CC1CCCCC1)C(=O)O; Carboxymethyl = O=C(O)C*; NMeA = CN[C@@H](C)C(=O)O; Orn = NCCC[C@H](N)C(=O)O; Dab = NCC[C@H](N)C(=O)O

target: T1, PE-labeled human PD-L1-Ig binding to Jurkat cell line over-expressing human PD-1 (Jurkat-PD-1) (Homo sapiens, UniProt Q15116); test: Jurkat-PD-1 Cell Binding High-Content Screening Assay (CBA): Method 1; settings: Jurkat-PD-1 cells, PE-labeled PD-L1-Ig; μM; read-out: CBA Method 1 μM
T1 construct: expressed in transfected cells; host or cells: Jurkat
T1 sequence (Q15116 25-288): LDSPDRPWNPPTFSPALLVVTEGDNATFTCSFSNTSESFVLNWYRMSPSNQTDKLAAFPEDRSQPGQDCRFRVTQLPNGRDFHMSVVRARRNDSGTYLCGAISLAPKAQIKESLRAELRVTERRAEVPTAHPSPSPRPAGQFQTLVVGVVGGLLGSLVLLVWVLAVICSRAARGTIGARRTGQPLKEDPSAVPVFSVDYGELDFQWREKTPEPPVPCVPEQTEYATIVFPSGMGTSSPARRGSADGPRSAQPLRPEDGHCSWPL

Row | SMILES | IC50 [µM]
1 | CCC(C)[C@@H]1NC(=O)[C@H](Cc2ccc(-c3ccccc3)cc2)NC(=O)[C@H](C(C)C)NC(=O)[C@H](Cc2c[nH]c3ccccc23)NC(=O)[C@H](CC(=O)O)NC(=O)[C@H](Cc2ccc(OCC(=O)O)cc2)NC(=O)[C@H](C(C)O)NC(=O)CSC[C@@H](C(=O)N[C@@H](CO)C(=O)NCC(=O)N[C@@H](CO)C(N)=O)NC(=O)[C@H](C(C)O)NC(=O)[C@H](C(C)C)NC(=O)C(CC2CCCCC2)NC(=O)[C@H](CCN)NC(=O)[C@@H](CC(C)C)NC(=O)[C@H](C)N(C)C1=O (stereo partly drawn) [Example 5003] ({CH2CO}-[Thr(3ξ)]Y(Carboxymethyl)DWV[Bip][Ile(3ξ)][NMeA][dL][Dab][ξCha]V[Thr(3ξ)]CSGS-NH2; thioether N-14) | 0.03

same assay, conditions: Jurkat-hPD-1 cells, PE-labeled PD-L1-Ig 20 nM final; read-out: Jurkat HPDL1 PD1 IC50 (uM) (Method 1)

Row | SMILES | IC50 [µM]
2 | CC(C)C[C@@H]1NC(=O)[C@H](Cc2c[nH]c3ccccc23)NC(=O)[C@H](CC(N)=O)NC(=O)[C@H](Cc2ccc(O)cc2)NC(=O)[C@H](Cc2ccccc2)NC(=O)CSC[C@@H](C(=O)N[C@@H](C)C(N)=O)NC(=O)[C@H](CO)NC(=O)[C@H](C(C)C)NC(=O)[C@H](CC(C)C)NC(=O)[C@H](CC(N)=O)NC(=O)[C@@H](C)NC(=O)[C@H](C)N(C)C(=O)[C@H](C(C)C)NC(=O)[C@H](Cc2ccc(-c3ccccc3)cc2)NC1=O [Compound 1791] ({CH2CO}-FYNWL[Bip]V[NMeA][dA]NLVSCA-NH2; thioether N-14) | 0.13
3 | CC(C)C[C@@H]1NC(=O)[C@H](CC(N)=O)NC(=O)[C@@H](CC(C)C)NC(=O)[C@H](C)N(C)C(=O)[C@H](CCCNC(=N)N)NC(=O)[C@H](Cc2ccc(-c3ccccc3)cc2)NC(=O)[C@H](C(C)C)NC(=O)[C@H](Cc2c[nH]c3ccccc23)NC(=O)[C@H](CC(=O)O)NC(=O)[C@H](Cc2ccc(O)cc2)NC(=O)[C@H](CC(N)=O)NC(=O)CSC[C@@H](C(=O)N[C@@H](C)C(N)=O)NC(=O)[C@H]([C@@H](C)O)NC(=O)[C@H](C(C)C)NC1=O [Compound 1245] ({CH2CO}-NYDWV[Bip]R[NMeA][dL]NLVTCA-NH2; thioether N-14) | 0.1
4 | CC(C)C[C@@H]1NC(=O)[C@H](CCCNC(=N)N)NC(=O)[C@@H](Cc2ccccc2)NC(=O)[C@H](C)N(C)C(=O)[C@H](CCCNC(=N)N)NC(=O)[C@H](Cc2ccc(-c3ccccc3)cc2)NC(=O)[C@H](C(C)C)NC(=O)[C@H](Cc2c[nH]c3ccccc23)NC(=O)[C@H](CC(=O)O)NC(=O)[C@H](Cc2ccc(O)cc2)NC(=O)[C@H](Cc2cnc[nH]2)NC(=O)CSC[C@@H](C(=O)N[C@@H](C)C(N)=O)NC(=O)[C@H](CO)NC(=O)[C@H](C(C)C)NC1=O [Compound 1044] ({CH2CO}-HYDWV[Bip]R[NMeA][dF]RLVSCA-NH2; thioether N-14) | 0.04
5 | CC[C@H](C)[C@@H]1NC(=O)[C@H](Cc2ccc(-c3ccccc3)cc2)NC(=O)[C@H](C(C)(C)O)NC(=O)[C@H](Cc2cccc(C)c2)NC(=O)[C@H](CC(=O)O)NC(=O)[C@H](Cc2ccc(O)cc2)NC(=O)[C@H](CC(N)=O)NC(=O)CSC[C@@H](C(=O)N[C@H](C)C(N)=O)NC(=O)[C@H](CCC(=O)O)NC(=O)[C@H](C(C)(C)O)NC(=O)[C@H](CC2CCCCC2)NC(=O)[C@H](CCN)NC(=O)[C@@H](CC(C)C)NC(=O)[C@H](C)N(C)C1=O [Compound 1700] ({CH2CO}-NYD[Phe(3-Me)][Val(3-OH)][Bip]I[NMeA][dL][Dab][Cha][Val(3-OH)]EC[dA]-NH2; thioether N-14) | 0.18
6 | COCc1ccc(-c2ccc(C[C@@H]3NC(=O)[C@H](C(C)C)NC(=O)[C@H](Cc4c[nH]c5ccccc45)NC(=O)[C@H](CC(=O)O)NC(=O)[C@H](Cc4ccc(O)cc4)NC(=O)[C@H](CC(N)=O)NC(=O)CSC[C@@H](C(=O)N[C@@H](C)C(N)=O)NC(=O)[C@H]([C@@H](C)O)NC(=O)[C@H](C(C)C)NC(=O)[C@H](CC(C)C)NC(=O)[C@H](CCN)NC(=O)[C@@H](CC(C)C)NC(=O)[C@H](C)N(C)C(=O)[C@H](CCCNC(=N)N)NC3=O)cc2)cc1 [Compound 1205] ({CH2CO}-NYDWV[X46]R[NMeA][dL][Dab]LVTCA-NH2; thioether N-14) | 0.81
7 | Cc1cccc(C[C@@H]2NC(=O)[C@H](CC(=O)O)NC(=O)[C@H](Cc3ccc(O)cc3)NC(=O)[C@H](CC(N)=O)NC(=O)CSC[C@@H](C(=O)N[C@H](C)C(N)=O)NC(=O)[C@H](CCC(=O)O)NC(=O)[C@H](C(C)C)NC(=O)[C@H](CC3CCCCC3)NC(=O)[C@H](CCN)NC(=O)[C@@H](CC(C)C)NC(=O)[C@H](C)N(C)C(=O)[C@H](CCCNC(N)=O)NC(=O)[C@H](Cc3ccc(-c4ccccc4)cc3)NC(=O)[C@H](C(C)(C)O)NC2=O)c1 [Compound 1710] ({CH2CO}-NYD[Phe(3-Me)][Val(3-OH)][Bip][Cit][NMeA][dL][Dab][Cha]VEC[dA]-NH2; thioether N-14) | 0.11
8 | CC(C)C[C@@H]1NC(=O)[C@H](CCN)NC(=O)[C@@H](CC(C)C)NC(=O)[C@H](C)N(C)C(=O)[C@H](Cc2cnc[nH]2)NC(=O)[C@H](Cc2ccc(-c3ccccc3)cc2)NC(=O)[C@H](C(C)C)NC(=O)[C@H](Cc2c[nH]c3ccccc23)NC(=O)[C@H](CC(=O)O)NC(=O)[C@H](Cc2ccc(OCC(=O)O)cc2)NC(=O)[C@H](CC(N)=O)NC(=O)CSC[C@@H](C(=O)N[C@@H](C)C(N)=O)NC(=O)[C@H]([C@@H](C)O)NC(=O)[C@H](C(C)C)NC1=O [Compound 1388] ({CH2CO}-NY(Carboxymethyl)DWV[Bip]H[NMeA][dL][Dab]LVTCA-NH2; thioether N-14) | 0.06
9 | Cc1cccc(C[C@@H]2NC(=O)[C@H](CC(=O)O)NC(=O)[C@H](Cc3ccc(C(=O)O)cc3)NC(=O)[C@H](Cc3ccc(OCC(=O)O)cc3)NC(=O)CSC[C@@H](C(N)=O)NC(=O)[C@H](CO)NC(=O)[C@H](C(C)C)NC(=O)[C@H](CC(C)C)NC(=O)[C@H](Cc3c[nH]cn3)NC(=O)[C@@H](CC(C)C)NC(=O)[C@H](C)N(C)C(=O)[C@H](C(C)C)NC(=O)[C@H](Cc3ccc(-c4ccccc4)cc3)NC(=O)[C@H](Cc3ccc(CN)cc3)NC2=O)c1 [Compound 1876] ({CH2CO}-Y(Carboxymethyl)[Phe(4-COOH)]D[Phe(3-Me)][Phe(4-CH2NH2)][Bip]V[NMeA][dL]HLVSC-NH2; thioether N-14) | 0.34
10 | Cc1cccc(C[C@@H]2NC(=O)[C@H](CC(=O)O)NC(=O)[C@H](Cc3ccc(O)cc3)NC(=O)[C@H](CC(N)=O)NC(=O)CSC[C@@H](C(=O)N[C@@H](CCN)C(N)=O)NC(=O)[C@H]([C@@H](C)O)NC(=O)[C@H](C(C)(C)O)NC(=O)[C@H](CC3CCCCC3)NC(=O)[C@H](CCN)NC(=O)[C@@H](CC(C)C)NC(=O)[C@H](C)N(C)C(=O)[C@H](CCCNC(N)=O)NC(=O)[C@H](Cc3ccc(-c4ccccc4)cc3)NC(=O)[C@H](C(C)C)NC2=O)c1 [Compound 1701] ({CH2CO}-NYD[Phe(3-Me)]V[Bip][Cit][NMeA][dL][Dab][Cha][Val(3-OH)]TC[Dab]-NH2; thioether N-14) | 0.01
11 | CCC(C)[C@@H]1NC(=O)[C@H](Cc2ccc(-c3ccccc3)cc2)NC(=O)[C@H](C(C)C)NC(=O)[C@H](Cc2cccc(C)c2)NC(=O)[C@H](CC(=O)O)NC(=O)[C@H](Cc2ccc(C(=O)O)cc2)NC(=O)[C@H](Cc2ccncc2)NC(=O)CSC[C@@H](C(N)=O)NC(=O)[C@H](CCCN)NC(=O)[C@H](C(C)C)NC(=O)[C@H](CC(C)C)NC(=O)[C@H](CCN)NC(=O)[C@@H](CC(C)C)NC(=O)[C@H](C)N(C)C1=O (stereo partly drawn) [Compound 1900] ({CH2CO}-[4Pal][Phe(4-COOH)]D[Phe(3-Me)]V[Bip][Ile(3ξ)][NMeA][dL][Dab]LV[Orn]C-NH2; thioether N-14) | 0.05
